Reference: the NIST ThermoML archive (doi:10.1021/je700021f)

Experiment: xn = mol fraction of the nth substance listed
Settings: 101 kPa, Liquid, Pulse-echo method

CCCCCCCCCCl [1-chlorononane] + CCCCCCCCC
speed of sound [m/s]
Settings	x2 = 0	x2 = 0.1	x2 = 0.3	x2 = 0.5	x2 = 0.7	x2 = 0.8	x2 = 0.85	x2 = 0.9
293.15 K	1297.2	1283.1	1268.5	1254.2	1243.5	1232.8	1231.8	1222.6
298.15 K	1278.2	1264.2	1249	1235	1223.5	1212.9	1211.9	1203.3
303.15 K	1259.5	1245.4	1229.8	1215.9	1203.6	1193	1192.1	1184.1
308.15 K	1240.9	1226.7	1210.6	1197	1183.9	1173.3	1172.4	1165
313.15 K	1222.5	1208.1	1191.7	1178.1	1164.3	1153.7	1152.8	1145.9
318.15 K	1204.3	1189.7	1172.8	1159.3	1144.9	1134.2	1133.4	1126.9
323.15 K	1186.3	1171.4	1154.1	1140.6	1125.6	1114.9	1114	1107.9
328.15 K	1168.4	1153.2	1135.6	1122	1106.5	1095.6	1094.7	1088.9
333.15 K	1150.7	1135.2	1117.1	1103.6	1087.5	1076.5	1075.5	1070
338.15 K	1133.2	1117.2	1098.9	1085.2	1068.7	1057.5	1056.4	1051.2
343.15 K	1115.9	1099.4	1080.7	1066.9	1050	1038.6	1037.4	1032.4
348.15 K	1098.8	1081.8	1062.7	1048.7	1031.5	1019.8	1018.5	1013.7
353.15 K	1081.9	1064.2	1044.9	1030.6	1013.1	1001.1	999.7	995
358.15 K	1065.1	1046.8	1027.2	1012.6	–	–	–	–
